Earlier results as cited in US20110098303A1, “Method of promoting nail growth using thyromimetic compounds” (priority 2002, published 2011).

Key:
nail growth = details: in vivo
AGA mouse = details: topical treatment

For N[C@@H](Cc1ccc(O)c(O)c1)C(=O)O [I-dopa], the “rate of nail growth” value (nail growth) is given as “accelerate the rate of nail growth”.
In the case of N[C@@H](Cc1cc(I)c(Oc2ccc(O)c(I)c2)c(I)c1)C(=O)O [T3, 3,5,3′-triiodo-L-thyronine], the “effect on testosterone induced alopecia” value (AGA mouse) is given as “inhibitory effect”, the hair growth (mice; administered locally, directly to the skin) is given as “dramatic acceleration of hair growth” and the growth of hair (mice; systemically administered) is given as “inhibits the growth of hair”.
In the case of O=C(O)CCCC[C@@H]1SC[C@@H]2NC(=O)N[C@@H]21 [biotin], the “rate of nail growth” value (nail growth) is given as “accelerate the rate of nail growth”.
For N[C@@H](CSSC[C@H](N)C(=O)O)C(=O)O [cystine], the “rate of nail growth” value (nail growth) is listed as “accelerate the rate of nail growth”.
For CSCC[C@H](N)C(=O)O [methionine], the “rate of nail growth” value (nail growth) is given as “accelerate the rate of nail growth”.
